In ChEMBL document CHEMBL5505970 (J Med Chem, 2024):
pIC50: −log10 of the molar value. Activity calls are given as the source filed them. No cut-off for these calls is given here.

Tests used:
[1] = Toxicity in NOD-SCID mouse xenografted with human Granta-519 cells assessed as early stage erythroblasts at 30 mg/kg, po qd for 3 days and measured at 2 days after treatment discontinuation by flow cytometry; assay type: organism-based; settings: in vivo, 72 h, time 3 day
LoVo = assay: Cytotoxicity against human LoVo cells assessed as reduction in cell viability incubated for 5 days by CellTiter-Glo assay; assay type: functional, cell-based; settings: 120 h
[2] = Toxicity in BALB/c mouse assessed as depletion of erythroid lineage by measuring increase in myeloid to erythroid ratio in bone marrow at 10 mg/kg, po qd for 3 days; assay type: organism-based; settings: in vivo, 72 h, time 3 day
[3] = Toxicity in NOD-SCID mouse xenografted with human Granta-519 cells assessed as changes in body weight at 25 mg/kg, po qd for 5 days and measured at 2 days after drug treatment cessation; assay type: organism-based; settings: in vivo, 120 h, time 5 day
[4] = Toxicity in NOD-SCID mouse xenografted with human Granta-519 cells assessed as late stage erythroblasts in bone marrow at 10 mg/kg, po qd for 3 days and measured at 4 days after treatment cessation by flow cytometry; assay type: organism-based; settings: in vivo, 72 h, time 3 day
[5] = Toxicity in NOD-SCID mouse xenografted with human Granta-519 cells assessed as early stage erythroblasts in bone marrow at 10 mg/kg, po qd for 3 days co-administered with PARP inhibitor, niraparib and measured at 2 days after treatment cessation by flow cytometry; assay type: organism-based; settings: in vivo, 72 h, time 3 day
Granta-519 [6] = assay: Antitumor activity against human Granta-519 cells xenografted in NOD-SCID mouse assessed as reduction in tumor volume at 5 mg/kg, po qd for 3 days co-administered with PARP inhibitor, niraparib; assay type: functional, organism-based; settings: time 3.0 day
[7] = Toxicity in NOD-SCID mouse xenografted with human Granta-519 cells assessed as reduction in early stage erythroblasts in bone marrow at 10 mg/kg, po qd for 1 day co-administered with PARP inhibitor, niraparib by flow cytometry; assay type: organism-based; settings: in vivo, 24 h
[8] = Clearance in dog liver microsomes at 1 uM in presence of NADPH by ESI/LC-MS/MS analysis; assay type: ADME, Canis lupus familiaris, Microsome; settings: read-out: CLH
Granta-519 [9] = assay: Antitumor activity against human Granta-519 cells xenografted in NOD-SCID mouse assessed as decrease in tumor volume at 30 mg/kg, po qd for 3 days and measured at 4 days after drug treatment cessation; assay type: functional, organism-based; settings: time 3.0 day
[10] = Oral bioavailability in Beagle dog at 5 mg/kg formulated as suspension in 0.5% methocel and 0.02% SLS in 50 mM citrate buffer measured for 24 hrs by reverse phase liquid chromatography coupled to mass spectrometry; assay type: ADME, organism-based, Canis lupus familiaris; settings: in vivo
[11] = Toxicity in BALB/c mouse assessed as early stage erythroblasts in bone marrow at 10 mg/kg, po qd for 3 days and measured at 1 day after treatment discontinuation by flow cytometry; assay type: organism-based; settings: in vivo, 72 h, time 3 day
[12] = Clearance in cynomolgus monkey at 0.5 mg/kg, iv formulated as a solution in 10% PG:18% PEG400 in water or 5% NMP:95% (10% VitE TPGS in water) measured for 24 hrs by reverse phase liquid chromatography coupled to mass spectrometry; assay type: ADME, organism-based, Macaca fascicularis; settings: in vivo
[13] = Clearance in dog hepatocytes at 1 uM measured per million cells by ESI/LC-MS/MS analysis; assay type: ADME, cell-based, Canis lupus familiaris, Hepatocyte; settings: read-out: CLH
[14] = Clearance in Beagle dog at 0.5 mg/kg, iv formulated as a solution in 10% PG:18% PEG400 in water or 5% NMP:95% (10% VitE TPGS in water) measured for 24 hrs by reverse phase liquid chromatography coupled to mass spectrometry; assay type: ADME, organism-based, Canis lupus familiaris; settings: in vivo
[15] = Toxicity in BALB/c mouse assessed as reticulocytes in bone marrow at 10 mg/kg, po qd for 3 days and measured at 4 days after treatment discontinuation; assay type: organism-based; settings: in vivo, 72 h, time 3 day
[16] = Toxicity in NOD-SCID mouse xenografted with human Granta-519 cells assessed as red blood cells at 30 mg/kg, po qd for 3 days and 4 days off treatment and measured on day 14; assay type: organism-based; settings: in vivo, 72 h, time 3 day
[17] = Clearance in mouse hepatocytes at 1 uM measured per million cells by ESI/LC-MS/MS analysis; assay type: ADME, cell-based, Hepatocyte; settings: read-out: CLH
[18] = Toxicity in NOD-SCID mouse xenografted with human Granta-519 cells assessed as reticulocytes count at 5 mg/kg, po qd for 3 days and 4 days off intermittent dosing for 3 cycles co-administered with PARP inhibitor, niraparib and measured on day 21; assay type: organism-based; settings: in vivo, 504 h, time 21 day
[19] = biological target: DNA-dependent protein kinase catalytic subunit (Homo sapiens, UniProt P78527); assay: Inhibition of DNA-PK in human Jurkat cell lysates at 0.3 uM in presence of biotinylated ADP by KiNativ profiling based mass spectrometry; assay type: subcellular
[20] = biological target: Serine/threonine-protein kinase mTOR (Homo sapiens, UniProt P42345); assay: Inhibition of mTOR in human Jurkat cell lysates at 0.03 to 0.3 uM in presence of biotinylated ADP by KiNativ profiling based mass spectrometry; assay type: subcellular; settings: dose 0.03-0.3 µM
[21] = Clearance in human hepatocytes at 1 uM measured per million cells by ESI/LC-MS/MS analysis; assay type: ADME, cell-based, Hepatocyte; settings: read-out: CLH
[22] = biological target: Serine-protein kinase ATM (Homo sapiens, UniProt Q13315); assay: Inhibition of ATM in human Jurkat cell lysates at 0.3 uM in presence of biotinylated ADP by KiNativ profiling based mass spectrometry; assay type: subcellular
[23] = Toxicity in BALB/c mouse assessed as late stage erythroblasts in bone marrow at 10 mg/kg, po qd for 3 days and 4 days off intermittent dosing for 4 cycles by flow cytometry; assay type: organism-based; settings: in vivo, 672 h, time 28 day
[24] = Clearance in Sprague-Dawley rat at 1 mg/kg, iv formulated as a solution in 10% PG:18% PEG400 in water or 5% NMP:95% (10% VitE TPGS in water) measured for 24 hrs by reverse phase liquid chromatography coupled to mass spectrometry; assay type: ADME, organism-based; settings: in vivo
[25] = Toxicity in BALB/c mouse assessed as early stage erythroblasts in bone marrow at 10 mg/kg, po qd for 3 days and 4 days off intermittent dosing for 4 cycles by flow cytometry; assay type: organism-based; settings: in vivo, 672 h, time 28 day
[26] = Toxicity in NOD-SCID mouse xenografted with human Granta-519 cells assessed as changes in body weight at 30 mg/kg, po qd for 3 days and measured at 4 days after drug treatment cessation; assay type: organism-based; settings: in vivo, 72 h, time 3 day
[27] = Clearance in rat hepatocytes at 1 uM measured per million cells by ESI/LC-MS/MS analysis; assay type: ADME, cell-based, Hepatocyte; settings: read-out: CLH
[28] = Clearance in rat liver microsomes at 1 uM in presence of NADPH by ESI/LC-MS/MS analysis; assay type: ADME, Microsome; settings: read-out: CLH
[29] = Clearance in monkey hepatocytes at 1 uM in presence of NADPH by ESI/LC-MS/MS analysis; assay type: ADME, cell-based, Macaca mulatta, Hepatocyte; settings: rhesus monkey
[30] = Toxicity in NOD-SCID mouse xenografted with human Granta-519 cells assessed as late stage erythroblasts in bone marrow at 10 mg/kg, po qd for 3 days co-administered with PARP inhibitor, niraparib and measured at 4 days after treatment cessation by flow cytometry; assay type: organism-based; settings: in vivo, 72 h, time 3 day
[31] = Toxicity in NOD-SCID mouse xenografted with human Granta-519 cells assessed as reduction in late stage erythroblasts at 10 mg/kg, po qd for 1 day by flow cytometry; assay type: organism-based; settings: in vivo, 24 h

Chain of Serine-protein kinase ATM (Q13315 whole entry): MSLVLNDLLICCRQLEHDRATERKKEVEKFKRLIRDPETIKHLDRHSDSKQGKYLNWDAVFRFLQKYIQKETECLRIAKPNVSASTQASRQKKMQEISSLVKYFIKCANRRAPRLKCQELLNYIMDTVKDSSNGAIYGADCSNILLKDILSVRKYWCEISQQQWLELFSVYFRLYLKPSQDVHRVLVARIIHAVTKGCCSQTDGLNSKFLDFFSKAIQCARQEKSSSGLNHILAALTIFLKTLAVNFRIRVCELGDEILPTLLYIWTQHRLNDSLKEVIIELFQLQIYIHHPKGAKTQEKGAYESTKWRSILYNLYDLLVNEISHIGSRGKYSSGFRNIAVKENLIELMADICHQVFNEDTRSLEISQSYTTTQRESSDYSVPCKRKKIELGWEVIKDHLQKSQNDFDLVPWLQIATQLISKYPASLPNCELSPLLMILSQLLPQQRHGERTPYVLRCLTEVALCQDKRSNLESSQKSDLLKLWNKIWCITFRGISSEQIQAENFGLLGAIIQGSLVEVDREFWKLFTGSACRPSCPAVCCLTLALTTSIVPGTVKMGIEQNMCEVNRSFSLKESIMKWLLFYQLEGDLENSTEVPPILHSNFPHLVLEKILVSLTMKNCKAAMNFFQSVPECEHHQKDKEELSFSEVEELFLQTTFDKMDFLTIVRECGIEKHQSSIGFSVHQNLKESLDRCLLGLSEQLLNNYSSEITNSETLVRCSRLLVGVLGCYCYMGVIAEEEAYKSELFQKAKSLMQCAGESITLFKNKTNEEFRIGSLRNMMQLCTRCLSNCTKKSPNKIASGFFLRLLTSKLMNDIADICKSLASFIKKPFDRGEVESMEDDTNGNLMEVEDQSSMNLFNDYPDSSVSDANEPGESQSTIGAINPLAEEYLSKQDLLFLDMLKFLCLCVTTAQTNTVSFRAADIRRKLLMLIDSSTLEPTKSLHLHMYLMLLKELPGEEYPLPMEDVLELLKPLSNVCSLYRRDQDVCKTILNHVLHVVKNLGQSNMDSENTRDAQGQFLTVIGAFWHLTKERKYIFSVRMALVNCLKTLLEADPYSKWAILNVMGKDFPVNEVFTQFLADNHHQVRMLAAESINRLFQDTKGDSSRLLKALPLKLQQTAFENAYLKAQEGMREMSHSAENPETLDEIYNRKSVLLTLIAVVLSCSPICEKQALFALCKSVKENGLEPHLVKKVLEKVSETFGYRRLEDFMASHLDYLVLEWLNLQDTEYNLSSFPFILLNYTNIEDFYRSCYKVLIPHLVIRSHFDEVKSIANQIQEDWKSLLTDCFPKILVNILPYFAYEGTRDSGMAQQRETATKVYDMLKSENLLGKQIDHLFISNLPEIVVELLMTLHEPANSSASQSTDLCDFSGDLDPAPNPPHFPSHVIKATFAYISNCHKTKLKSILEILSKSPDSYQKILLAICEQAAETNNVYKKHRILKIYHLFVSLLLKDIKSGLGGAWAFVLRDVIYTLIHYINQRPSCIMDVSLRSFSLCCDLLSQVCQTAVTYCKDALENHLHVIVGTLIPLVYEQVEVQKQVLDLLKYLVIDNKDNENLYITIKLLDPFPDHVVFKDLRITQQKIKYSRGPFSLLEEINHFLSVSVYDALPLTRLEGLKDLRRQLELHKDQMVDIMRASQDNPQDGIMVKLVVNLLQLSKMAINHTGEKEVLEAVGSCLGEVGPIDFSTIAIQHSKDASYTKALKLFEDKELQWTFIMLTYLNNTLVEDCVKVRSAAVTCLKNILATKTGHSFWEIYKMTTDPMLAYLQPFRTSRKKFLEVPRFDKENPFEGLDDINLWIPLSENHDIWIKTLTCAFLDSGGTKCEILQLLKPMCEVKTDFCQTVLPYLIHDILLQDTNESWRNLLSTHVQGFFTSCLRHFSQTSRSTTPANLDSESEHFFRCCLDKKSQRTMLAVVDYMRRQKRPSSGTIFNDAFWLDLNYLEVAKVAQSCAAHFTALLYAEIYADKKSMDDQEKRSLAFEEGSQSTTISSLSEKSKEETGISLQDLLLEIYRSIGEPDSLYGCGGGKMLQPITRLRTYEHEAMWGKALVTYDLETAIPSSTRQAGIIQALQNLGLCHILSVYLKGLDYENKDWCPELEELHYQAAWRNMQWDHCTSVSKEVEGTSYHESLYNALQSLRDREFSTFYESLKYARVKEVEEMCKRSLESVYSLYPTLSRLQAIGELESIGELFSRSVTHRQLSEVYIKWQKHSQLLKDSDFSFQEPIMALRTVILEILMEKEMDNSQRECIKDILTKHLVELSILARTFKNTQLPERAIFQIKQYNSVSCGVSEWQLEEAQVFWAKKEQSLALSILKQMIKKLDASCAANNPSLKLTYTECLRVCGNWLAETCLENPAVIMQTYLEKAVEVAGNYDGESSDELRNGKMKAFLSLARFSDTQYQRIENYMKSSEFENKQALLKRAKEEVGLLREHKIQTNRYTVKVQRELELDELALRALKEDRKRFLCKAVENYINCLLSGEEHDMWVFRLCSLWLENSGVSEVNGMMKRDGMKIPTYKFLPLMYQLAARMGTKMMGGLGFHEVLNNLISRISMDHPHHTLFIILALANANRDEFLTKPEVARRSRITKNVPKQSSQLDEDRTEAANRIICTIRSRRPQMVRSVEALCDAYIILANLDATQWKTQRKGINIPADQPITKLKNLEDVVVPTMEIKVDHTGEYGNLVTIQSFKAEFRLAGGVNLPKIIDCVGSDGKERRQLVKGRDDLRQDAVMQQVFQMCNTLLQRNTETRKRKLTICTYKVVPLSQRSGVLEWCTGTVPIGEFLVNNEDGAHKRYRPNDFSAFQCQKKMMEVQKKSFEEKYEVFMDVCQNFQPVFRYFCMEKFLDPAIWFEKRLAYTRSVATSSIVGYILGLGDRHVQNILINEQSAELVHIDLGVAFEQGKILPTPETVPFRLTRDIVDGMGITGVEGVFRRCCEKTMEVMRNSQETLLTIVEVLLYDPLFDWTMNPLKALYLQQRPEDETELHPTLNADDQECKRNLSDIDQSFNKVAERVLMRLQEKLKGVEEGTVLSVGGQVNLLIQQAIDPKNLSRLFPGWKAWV

C[C@@H]1COCCN1c1cc([C@]2(O)C[C@H]3CC[C@@H](C2)O3)c2cnn(-c3cc[nH]n3)c2n1 [CAMONSERTIB]
Activity [1]: Non-Toxic | pIC50 (LoVo): 7.55 | Activity [2]: Toxic | Activity [3]: Non-Toxic | Activity [4]: Non-Toxic | Activity [5]: Non-Toxic | Activity (Granta-519 [6]): Active | Activity [7]: Toxic | microsomal CLint at 1 µM [8]: < 11.6 µL/min/mg | Activity (Granta-519 [9]): Active | bioavailability [10]: 113% | Activity [11]: Non-Toxic | clearance [12]: 14 mL/min/kg | hepatocyte CLint at 1 µM [13]: < 1 µL/min/1e6 cells | clearance [14]: 10.1 mL/min/kg | Activity [15]: Non-Toxic | Activity [16]: Non-Toxic | hepatocyte CLint at 1 µM [17]: 11 µL/min/1e6 cells | Activity [18]: Non-Toxic | inhibition [19]: Active | inhibition [20]: Active | hepatocyte CLint at 1 µM [21]: 1.5 µL/min/1e6 cells | inhibition [22]: Active | Activity [23]: Non-Toxic | clearance [24]: 22 mL/min/kg | Activity [25]: Non-Toxic | Activity [26]: Non-Toxic | hepatocyte CLint at 1 µM [27]: 17 µL/min/1e6 cells | microsomal CLint at 1 µM [28]: 97 µL/min/mg | CLH [29]: 3.6 µL/min | Activity [30]: Non-Toxic | Activity [31]: Toxic
